Measured values: patent US20220313835A1, “AMINOQUINOLINE COMPOUNDS, IMMUNOCONJUGATES, AND USES THEREOF” (BOLT BIOTHERAPEUTICS, INC., priority 2019, published 2022)

What was measured:
human TLR8 = target: T1, human TLR8 (Homo sapiens, UniProt Q9NR97); test: HEK Reporter Assay, HEK293 NFKB reporter cells expressing human TLR8; assay type: cell-based; conditions: read-out: HEK-293 hTLR8 EC50
T1 construct: host or cells: HEK293 NF-kB reporter cells
T1 sequence (Q9NR97 27-1041): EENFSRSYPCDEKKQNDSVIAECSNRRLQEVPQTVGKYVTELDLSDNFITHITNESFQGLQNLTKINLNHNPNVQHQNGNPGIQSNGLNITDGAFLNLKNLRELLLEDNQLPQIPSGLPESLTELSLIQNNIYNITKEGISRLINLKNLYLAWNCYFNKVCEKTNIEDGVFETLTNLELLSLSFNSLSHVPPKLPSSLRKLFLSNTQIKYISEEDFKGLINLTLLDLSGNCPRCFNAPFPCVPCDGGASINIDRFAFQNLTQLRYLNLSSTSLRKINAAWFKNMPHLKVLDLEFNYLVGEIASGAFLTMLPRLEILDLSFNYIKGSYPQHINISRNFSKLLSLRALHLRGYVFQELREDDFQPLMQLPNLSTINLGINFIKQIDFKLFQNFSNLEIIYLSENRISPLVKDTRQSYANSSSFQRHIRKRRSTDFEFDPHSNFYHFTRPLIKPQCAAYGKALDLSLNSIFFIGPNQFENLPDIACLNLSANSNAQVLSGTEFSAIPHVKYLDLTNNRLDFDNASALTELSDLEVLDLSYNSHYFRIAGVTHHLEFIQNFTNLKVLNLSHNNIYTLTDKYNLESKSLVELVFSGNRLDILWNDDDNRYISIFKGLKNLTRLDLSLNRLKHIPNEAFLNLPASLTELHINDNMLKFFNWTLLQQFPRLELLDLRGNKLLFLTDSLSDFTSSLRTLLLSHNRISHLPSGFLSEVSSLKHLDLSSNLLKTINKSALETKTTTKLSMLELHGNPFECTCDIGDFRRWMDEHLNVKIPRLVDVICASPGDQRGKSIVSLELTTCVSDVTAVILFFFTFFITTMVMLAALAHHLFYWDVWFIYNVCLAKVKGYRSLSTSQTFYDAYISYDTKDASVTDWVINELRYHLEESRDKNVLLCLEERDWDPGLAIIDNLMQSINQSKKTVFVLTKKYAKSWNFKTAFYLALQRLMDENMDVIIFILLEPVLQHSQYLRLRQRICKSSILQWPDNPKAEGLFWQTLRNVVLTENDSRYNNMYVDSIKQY
Method: (§1) Each compound was characterized by mass spectrometry and shown to have the mass indicated. Activity against HEK293 NFKB reporter cells expressing human TLR7 or human TLR8 was measured according to Example 31.
(§2) HEK293 reporter cells expressing human TLR7 or human TLR8 were purchased from Invivogen and vendor protocols were followed for cellular propagation and experimentation. Briefly, cells were grown to 80-85% confluence at 5% CO2 in DMEM supplemented with 10% FBS, Zeocin, and Blasticidin. Cells were then seeded in 96-well flat plates at 4×10^4 cells/well with substrate containing HEK detection medium and immunostimulatory molecules. Activity was measured using a plate reader at 620-655 nm wavelength.

human TLR7 = target: T2, human TLR7 (Homo sapiens, UniProt Q9NYK1); test: HEK Reporter Assay, HEK293 NFKB reporter cells expressing human TLR7; assay type: cell-based; conditions: read-out: HEK-293 hTLR7 EC50
T2 construct: host or cells: HEK293 NF-kB reporter cells
T2 sequence (Q9NYK1 27-1049): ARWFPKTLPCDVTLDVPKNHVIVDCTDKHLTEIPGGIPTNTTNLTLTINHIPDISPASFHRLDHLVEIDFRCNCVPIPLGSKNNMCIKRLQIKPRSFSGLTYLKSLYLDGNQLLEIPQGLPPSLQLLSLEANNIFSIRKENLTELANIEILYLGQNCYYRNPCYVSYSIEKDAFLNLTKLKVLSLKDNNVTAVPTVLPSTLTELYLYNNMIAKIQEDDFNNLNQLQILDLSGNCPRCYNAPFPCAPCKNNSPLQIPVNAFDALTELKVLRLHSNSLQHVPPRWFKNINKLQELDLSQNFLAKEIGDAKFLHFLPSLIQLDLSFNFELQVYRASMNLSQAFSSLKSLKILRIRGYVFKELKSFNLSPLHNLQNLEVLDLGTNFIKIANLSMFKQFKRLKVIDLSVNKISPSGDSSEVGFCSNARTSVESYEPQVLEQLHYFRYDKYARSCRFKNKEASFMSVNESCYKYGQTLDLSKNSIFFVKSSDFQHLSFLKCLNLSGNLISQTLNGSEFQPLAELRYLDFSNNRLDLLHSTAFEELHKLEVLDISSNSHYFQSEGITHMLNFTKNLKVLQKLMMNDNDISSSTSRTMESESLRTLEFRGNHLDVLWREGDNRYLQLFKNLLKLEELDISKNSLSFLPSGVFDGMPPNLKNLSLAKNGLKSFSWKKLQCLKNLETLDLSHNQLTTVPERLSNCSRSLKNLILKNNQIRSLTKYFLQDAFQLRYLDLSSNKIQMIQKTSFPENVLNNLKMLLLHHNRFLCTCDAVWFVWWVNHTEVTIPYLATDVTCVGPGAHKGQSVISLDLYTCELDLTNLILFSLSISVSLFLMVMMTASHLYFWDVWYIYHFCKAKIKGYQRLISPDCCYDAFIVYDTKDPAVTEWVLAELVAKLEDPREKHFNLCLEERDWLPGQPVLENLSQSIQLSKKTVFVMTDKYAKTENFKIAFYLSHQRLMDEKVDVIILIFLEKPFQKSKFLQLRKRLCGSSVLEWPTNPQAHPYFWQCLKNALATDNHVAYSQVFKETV
Method: as §1, §2

SMILES	EC50 (human TLR8)	EC50 (human TLR7)
CCCCCc1cc2c(CCCCCNC(C)=O)cccc2nc1N [AQ-1, N-(5-(2-amino-3-pentylquinolin-5-yl)pentyl)acetamide]	> 9 µM	0.252 µM
CCCCCc1cc2c(CCCCCNC(=O)Nc3cccc(C#N)c3)cccc2nc1N [AQ-2, 1-(5-(2-amino-3-pentylquinolin-5-yl)pentyl)-3-(3-cyanophenyl)urea]	> 9 µM	> 9 µM
CCCCCc1cc2c(CCCCCNC(=O)OC(C)(C)C)cccc2nc1N [AQ-3, tert-butyl (5-(2-amino-3-pentylquinolin-5-yl)pentyl)carbamate]	> 9 µM	> 9 µM
CCCCCc1cc2c(CCCCCNC=O)cccc2nc1N [AQ-4, N-(5-(2-amino-3-pentylquinolin-5-yl)pentyl)formamide]	> 9 µM	> 9 µM
CCCCCc1cc2ccc(-c3cccc(S(=O)(=O)N4CC(CO)C4)c3)cc2nc1N [AQ-5, (1-((3-(2-amino-3-pentylquinolin-7-yl)phenyl)sulfonyl)azetidin-3-yl)methanol]	0.562 µM	> 9 µM
CCCN(CCC)C(=O)c1cc2ccccc2nc1N [AQ-6, 2-amino-N,N-dipropylquinoline-3-carboxamide]	> 9 µM	> 9 µM
CCCN(CCC)C(=O)c1cc2c(CCCCCN)cccc2nc1N [AQ-7, 2-amino-5-(5-aminopentyl)-N,N-dipropylquinoline-3-carboxamide]	> 9 µM	> 9 µM
CCCCCc1cc2c(CCCCCN(C)C)cccc2nc1N [AQ-8, 5-(5-(dimethylamino)pentyl)-3-pentylquinolin-2-amine]	1.02 µM	> 9 µM
CCCCCc1cc2ccc(C(=O)Nc3ccc(N4CCC(C(=O)NCCNC(=O)OC(C)(C)C)CC4)nc3)cc2nc1N [AQ-10, tert-butyl N-[2-[[1-[5-[(2-amino-3-pentyl-quinoline-7-carbonyl)amino]-2-pyridyl]piperidine-4-carbonyl]amino]ethyl]carbamate]	> 9 µM	> 9 µM
CCCCCc1cc2ccc(-c3cccc(S(=O)(=O)N4CC(CNC(=O)OC(C)(C)C)C4)c3)cc2nc1N [AQ-11, tert-butylN-[[1-[3-(2-amino-3-pentyl-7-quinolyl)phenyl]sulfonylazetidin-3-yl]methyl] carbamate]	> 9 µM	> 9 µM
CCCCCc1cc2ccc(-c3cccc(S(=O)(=O)N4CC(CN)C4)c3)cc2nc1N [AQ-12, 7-[3-[3-(aminomethyl)azetidin-1-yl]sulfonylphenyl]-3-pentyl-quinolin-2-amine]	1.48 µM	> 9 µM
CCCCCc1cc2c(CCCCCN)cc(-c3cccc(S(=O)(=O)N4CC(CO)C4)c3)cc2nc1N [AQ-13, [1-[3-[2-amino-5-(5-aminopentyl)-3-pentyl-7-quinolyl]phenyl]sulfonylazetidin-3-yl]methanol]	> 9 µM	> 9 µM
CCCCCc1cc2ccc(C(=O)Nc3ccc(N4CCC(C(=O)NCCN)CC4)nc3)cc2nc1N [AQ-14, 2-amino-N-(6-(4-((2-aminoethyl)carbamoyl)piperidin-1-yl)pyridin-3-yl)-3-pentylquinoline-7-carboxamide]	> 9 µM	> 9 µM
CCCCCc1cc2c(CC3CCCN3C)cc(-c3cccc(S(=O)(=O)N4CC(CO)C4)c3)cc2nc1N (stereo not shown) [AQ-15, [1-[3-[2-amino-5-[(1-methylpyrrolidin-2-yl)methyl]-3-pentyl-7-quinolyl]phenyl]sulfonylazetidin-3-yl]methanol]	2.45 µM	> 9 µM
CCCCCc1cc2c(C#CCCCNC(=O)OC(C)(C)C)cc(-c3cccc(S(=O)(=O)N4CC(CO)C4)c3)cc2nc1N [AQ-16, tert-butyl N-[5-[2-amino-7-[3-[3-(hydroxymethyl)azetidin-1-yl]sulfonylphenyl]-3-pentyl-5-quinolyl]pent-4-ynyl]carbamate]	> 9 µM	> 9 µM
CCCCCc1cc2ccc(-c3cccc(S(=O)(=O)N4CC(CN/C(=N\CCOC)Nc5cccc(C#N)c5)C4)c3)cc2nc1N [AQ-17, 1-((1-((3-(2-amino-3-pentylquinolin-7-yl)phenyl)sulfonyl)azetidin-3-yl)methyl)-3-(3-cyanophenyl)-2-(2-methoxyethyl)guanidine]	> 9 µM	> 9 µM
CCCCCc1cc2c(CCCCCN/C(=N\c3cccc(C#N)c3)NCCOC)cccc2nc1N [AQ-18, 1-(5-(2-amino-3-pentylquinolin-5-yl)pentyl)-3-(3-cyanophenyl)-2-(2-methoxyethyl)guanidine]	> 9 µM	> 9 µM
